The test addresses CXCR4 (Homo sapiens (Human), UniProt P61073). The experiment in a line: Functional calcium mobilization assay (SDF-1α induced). It counts as cell-based. To be noted: for IC50: CEM cells, SDF-1α challenge at EC80-EC90, read-out: Ca Flux IC50; for inhibition at 1 µM: CCRF-CEM, read-out: % inhibition at 1 μM. How it is done:
Functional modulation of CXCR4 was determined by calcium mobilization assay using leukemic lymphoid CEM cells, which naturally express high levels of CXCR4. Generally, the assay is carried out as follows: Cells are grown in vitro to confluency. On the day of the assay, cells are removed from the incubator, culture medium removed and replaced with a calcium sensitive dye (Calcium3 assay kit; Molecular Devices, Sunnyvale, Calif.). The cells are allowed to dye load for 45-60 min at 37° C. in the cell culture incubator and then allowed to equilibrate to room temperature for no more than 15 min before assay.
Compound plates were generated containing up to 3% dimethyl sulfoxide in media kept at room temperature. Test compounds were added to the cells at a 1:3 dilution, and calcium mobilization was measured using a Flex Station fluorescence imager (Molecular Devices). This first read was used to determine direct agonist activation of the CXCR4 receptor by the test compounds. […] Full dose response curves were generated daily for SDF-1a to calculate IC50 concentrations. The IC50 values are reported. In cases, where one was not determined, a percent inhibition at the 1 μM concentration was extrapolated.
Functional calcium mobilization assay was conducted as described in Example 27.

Sequence of CXCR4 (P61073 whole entry): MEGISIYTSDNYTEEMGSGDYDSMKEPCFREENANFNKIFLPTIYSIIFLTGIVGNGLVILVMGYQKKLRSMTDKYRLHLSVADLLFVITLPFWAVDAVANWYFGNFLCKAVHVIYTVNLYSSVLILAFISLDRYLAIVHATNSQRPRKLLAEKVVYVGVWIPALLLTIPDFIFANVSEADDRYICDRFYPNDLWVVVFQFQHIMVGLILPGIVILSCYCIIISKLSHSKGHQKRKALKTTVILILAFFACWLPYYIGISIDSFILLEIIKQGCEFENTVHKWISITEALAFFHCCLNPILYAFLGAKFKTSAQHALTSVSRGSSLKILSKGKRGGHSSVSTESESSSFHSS

`NCCCn1c2ccccc2c2ccnc(CN(CCCN3CCNC(=O)C3)[C@H]3CCCc4cccnc43)c21`: the IC50 (in general, the point on the concentration scale where inhibition reaches its midpoint) was determined as 30 nM.

As to `NCCN(Cc1nccc2c1[nH]c1ccccc12)C1CCCc2cccnc21` (stereo not drawn), the inhibition (usually the percentage by which the read-out fell short of the control) at 1 µM is 0%.

Turning to `N[C@@H](CCCN(Cc1nccc2c3ccccc3n(CC(=O)N3CCOCC3)c12)[C@H]1CCCc2cccnc21)C(=O)O`, the inhibition at 1 µM amounted to 0%.

Regarding `c1cnc2c(c1)CCCC2N(CCCCN1CCNCC1)Cc1nccc2c1[nH]c1ccccc12` (stereo not drawn), the IC50 turned out to be 1960 nM.

As to `CC(c1ccccn1)N(CCCCN)Cc1nccc2c3ccccc3n(CC(=O)N3CCOCC3)c12` (stereo not drawn), the IC50 came to 423 nM.

Consider `NCCCCN(Cc1nccc2c3ccccc3n(CC(=O)NC3CCOCC3)c12)[C@H]1CCCc2cccnc21`, for which the IC50 amounted to 21 nM.

In the case of `c1cnc(NCCCCN(Cc2nccc3c2[nH]c2ccccc23)[C@H]2CCCc3cccnc32)nc1`, the inhibition at 1 µM was determined as 0%.

In the case of `NCC#CCN(Cc1nccc2c1[nH]c1ccccc12)[C@H]1CCCc2cccnc21`, the inhibition at 1 µM was 0%.

On to `CC(C)(C)OC(=O)Cn1c2ccccc2c2ccnc(CN[C@H]3CCCc4cccnc43)c21`, for which the half-inhibitory concentration (IC50) came to 2810 nM.

As to `NCCCCN(Cc1nccc2c3ccccc3n(CC(=O)NC3CCNCC3)c12)[C@H]1CCCc2cccnc21`, the IC50 was 110 nM.

Regarding `C#CCn1c2ccccc2c2ccnc(CN(CCCCN)[C@H]3CCCc4cccnc43)c21`, the IC50 turned out to be 9 nM.

As for `CN(Cc1nccc2c3ccccc3n(CCCN)c12)[C@H]1CCCc2cccnc21`, the IC50 is 1050 nM.

As to `O=C1CN(CCCN(Cc2nccc3c4ccccc4n(CCCN4C(=O)c5ccccc5C4=O)c23)[C@H]2CCCc3cccnc32)CCN1`, the IC50 was 138 nM.

On to `NCCCCN(Cc1nccc2c3ccccc3n(CCCN3CCNCC3)c12)[C@H]1CCCc2cccnc21` [drawing 723], for which the IC50 is 15 nM.

Turning to `NCCCCN(C(=O)c1nccc2c1[nH]c1ccccc12)C1CCCc2cccnc21` (stereo not drawn), the inhibition at 1 µM was found to be 0%.

On to `N[C@H]1CC[C@@H](CN(Cc2nccc3c4ccccc4n(CC(=O)N4CCOCC4)c23)[C@H]2CCCc3cccnc32)CC1`, for which the IC50 was 1260 nM.

With `c1cnc2c(c1)CCC[C@@H]2N(Cc1nccc2c1[nH]c1ccccc12)CC1CCCNC1` (stereo partly drawn), the IC50 was determined as 3600 nM.

As to `CS(=O)(=O)N1CCN(CCN(Cc2nccc3c2[nH]c2ccccc23)C2CCCc3cccnc32)CC1` (stereo not drawn), the IC50 was 10000 nM.

With `NCCCCN(Cc1nccc2c3ccccc3n(CC(=O)N3CCC(O)CC3)c12)[C@H]1CCCc2cccnc21`, the IC50 is 212 nM.

Take `O=C(Cn1c2ccccc2c2ccnc(CN(C(=O)CCN3CCNCC3)[C@H]3CCCc4cccnc43)c21)N1CCOCC1`: the inhibition at 1 µM worked out at 0%.

On to `c1cnc2c(c1)CCC[C@@H]2N(CCCN1CCNCC1)Cc1nccc2c3ccccc3n(CCC3CCOCC3)c12`, for which the IC50 was 1 nM.

Take `NCCCCN(Cc1cc2c3ccccc3n(CC(=O)O)c2cn1)[C@H]1CCCc2cccnc21`: the IC50 stood at 864 nM.

Take `CC(C)(C)OC(=O)[C@@H](N)CCCN(Cc1nccc2c1[nH]c1ccccc12)[C@H]1CCCc2cccnc21`: the IC50 was 9580 nM.

As for `CS(=O)(=O)NCCCCN(Cc1nccc2c1[nH]c1ccccc12)[C@H]1CCCc2cccnc21`, the inhibition at 1 µM is 0%.

Regarding `c1cnc2c(c1)CCCC2N(CCCN1CCNCC1)Cc1nccc2c1[nH]c1ccccc12` (stereo not drawn), the IC50 worked out at 18 nM.

On to `Cn1c(CN(CCCCN)C2CCCc3cccnc32)nnc1-c1ccccc1` (stereo not drawn), for which the IC50 came out at 3200 nM.

As to `NCCCn1c2ccccc2c2ccnc(CN[C@H]3CCCc4cccnc43)c21`, the IC50 worked out at 8890 nM.

Regarding `O=C1CNCCN1CCCN(Cc1nccc2c3ccccc3n(CC(=O)N3CCOCC3)c12)[C@H]1CCCc2cccnc21`, the inhibition at 1 µM was 0%.

For the molecule `NCCCCN(Cc1nccc2c3ccccc3n(Cc3ccccc3)c12)[C@H]1CCCc2cccnc21`, the IC50 was 47 nM.

For the molecule `COCCn1c2ccccc2c2ccnc(CN(CCCN3CCNCC3)[C@H]3CCCc4cccnc43)c21`, the IC50 turned out to be 49 nM.

On to `CCNCCCCN(Cc1nccc2c1[nH]c1ccccc12)C1CCCc2cccnc21` (stereo not drawn), for which the IC50 was 168 nM.

Take `O=C(Cn1c2ccccc2c2ccnc(CN(CCCN3CCNCC3)[C@H]3CCCc4cccnc43)c21)N1CCOCC1`: the IC50 amounted to 44 nM.

Turning to `c1ccc(Cn2c3ccccc3c3ccnc(CN(CCCN4CCNCC4)[C@H]4CCCc5cccnc54)c32)nc1`, the IC50 is 176 nM.

On to `NCCCCN(Cc1nccc2c3ccccc3n(CC(=O)N3CCCCC3)c12)[C@H]1CCCc2cccnc21`, for which the IC50 turned out to be 270 nM.

Turning to `c1ccc(Cn2c3ccccc3c3ccnc(CN(CCCN4CCNCC4)[C@H]4CCCc5cccnc54)c32)cc1`, the IC50 turned out to be 152 nM.

As for `CC(C)(C)OC(=O)Cn1c2ccccc2c2cc(CN(CCCCN)[C@H]3CCCc4cccnc43)ncc21`, the IC50 was 949 nM.

For the molecule `CC(C)(C)OC(=O)Cn1c2ccccc2c2ccnc(CN(CCCCN)[C@H]3CCCc4cccnc43)c21`, the IC50 was 1 nM.

Consider `c1cnc2c(c1)CCC[C@@H]2N(CCCN1CCNCC1)Cc1nccc2c3ccccc3n(CC3CC3)c12`, for which the 50% inhibitory concentration (IC50) turned out to be 14 nM.

As for `NCCCCN(Cc1nccc2c1[nH]c1ccccc12)C1CCCc2cccnc21` (stereo not drawn) [drawing 654], the IC50 amounted to 142 nM.

Regarding `CC(C)(C)OC(=O)Cn1c2ccccc2c2ccnc(CN(CCCN3CCNCC3)[C@H]3CCCc4cccnc43)c21` [drawing 743], the IC50 was 59 nM.

Take `CS(=O)(=O)N1CCC(CCN(Cc2nccc3c2[nH]c2ccccc23)C2CCCc3cccnc32)CC1` (stereo not drawn): the inhibition at 1 µM was found to be 5%.

On to `c1cnc2c(c1)CCC[C@@H]2N(CCCN1CCNCC1)Cc1nccc2c1[nH]c1ccccc12`, for which the IC50 was 87 nM.

Regarding `NCCCCN(Cc1nccc2c3ccccc3n(CCO)c12)[C@H]1CCCc2cccnc21`, the IC50 came to 11 nM.

For `NCCCCN(Cc1ccccn1)Cc1nccc2c1[nH]c1ccccc12`, the IC50 was determined as 1970 nM.

Turning to `NCCCCN(Cc1nccc2c3ccccc3n(CC(N)=O)c12)[C@H]1CCCc2cccnc21` [drawing 765], the IC50 is 17 nM.

In the case of `O=C(Cn1c2ccccc2c2ccnc(CN(CCCN3CCNCC3)[C@H]3CCCc4cccnc43)c21)NC1CCOCC1`, the IC50 was 26 nM.

Regarding `CCN(Cc1nccc2c3ccccc3n(CCCN)c12)[C@H]1CCCc2cccnc21`, the IC50 is 997 nM.

For `CCN(CC)CCCCN(Cc1nccc2c1[nH]c1ccccc12)C1CCCc2cccnc21` (stereo not drawn), the inhibition at 1 µM was found to be 4%.

Turning to `c1cnc2c(c1)CCC[C@@H]2N(CCCN1CCNCC1)Cc1nccc2c3ccccc3n(CCN3CCOCC3)c12`, the IC50 is 24 nM.

Turning to `CC(C)(C)OC(=O)[C@@H](N)CCCN(Cc1nccc2c3ccccc3n(CC(=O)N3CCOCC3)c12)[C@H]1CCCc2cccnc21`, the inhibition at 1 µM turned out to be 0%.

For `NCCCCN(Cc1nccc2c3ccccc3n(Cc3ccccn3)c12)[C@H]1CCCc2cccnc21`, the IC50 is 31 nM.

Take `NCCCCN(Cc1nccc2c3ccccc3n(CC(=O)N3CCC(N)CC3)c12)[C@H]1CCCc2cccnc21`: the IC50 was 4390 nM.

As for `Cn1c2ccccc2c2ccnc(CN(CCCCN)C3CCCc4cccnc43)c21` (stereo not drawn), the IC50 was 10 nM.

Regarding `NC1CCN(C(=O)CN(Cc2nccc3c2[nH]c2ccccc23)[C@H]2CCCc3cccnc32)CC1`, the inhibition at 1 µM is 0%.

Consider `c1ccc(N2CCNCC2)c(CN(Cc2nccc3c2[nH]c2ccccc23)[C@H]2CCCc3cccnc32)c1`, for which the IC50 was found to be 3730 nM.

For the molecule `c1cnc2c(c1)CCCC2N(CCC1CCNCC1)Cc1nccc2c1[nH]c1ccccc12` (stereo not drawn), the inhibition at 1 µM stood at 55%.

Consider `NC(=O)NCCCCN(Cc1nccc2c1[nH]c1ccccc12)[C@H]1CCCc2cccnc21`, for which the IC50 is 6670 nM.

For `NCc1ccc(CN(Cc2nccc3c4ccccc4n(CC(=O)N4CCOCC4)c23)[C@H]2CCCc3cccnc32)cc1`, the inhibition at 1 µM worked out at 0%.

Turning to `O=C(NNc1ccccc1)c1ccc(CN(Cc2nccc3c2[nH]c2ccccc23)[C@H]2CCCc3cccnc32)cc1`, the inhibition at 1 µM amounted to 0%.

As for `NCCCCN(Cc1nccc2c3ccccc3n(CCN3CCNCC3)c12)[C@H]1CCCc2cccnc21` [drawing 754], the IC50 came out at 63 nM.

`CN1CCN(C(=O)Cn2c3ccccc3c3ccnc(CN(CCCCN)[C@H]4CCCc5cccnc54)c32)CC1` [drawing 725]: the IC50 was 30 nM.

Turning to `NCCCCN(Cc1cc2c(cn1)[nH]c1ccccc12)[C@@H]1CCCc2cccnc21`, the IC50 was found to be 1180 nM.

Regarding `CN(Cc1nccc2c3ccccc3n(CCN)c12)[C@H]1CCCc2cccnc21`, the IC50 amounted to 142 nM.

On to `CC(=O)NCCCCN(Cc1nccc2c1[nH]c1ccccc12)C1CCCc2cccnc21` (stereo not drawn), for which the IC50 was 1720 nM.

Take `OCCCCN(Cc1nccc2c1[nH]c1ccccc12)[C@H]1CCCc2cccnc21`: the inhibition at 1 µM stood at 0%.

As to `CC(C)CN(Cc1nccc2c3ccccc3n(CCCN)c12)[C@H]1CCCc2cccnc21`, the inhibition at 1 µM is 0%.

Regarding `NCCCCN(Cc1cc2c3ccccc3n(CC(=O)N3CCOCC3)c2cn1)[C@H]1CCCc2cccnc21`, the inhibition at 1 µM turned out to be 0%.

`NCCCCN(Cc1nccc2c3ccccc3n(CC(=O)O)c12)[C@H]1CCCc2cccnc21` [drawing 709]: the IC50 worked out at 22 nM.

Consider `c1cnc2c(c1)CCCC2N(CCN1CCOCC1)Cc1nccc2c1[nH]c1ccccc12` (stereo not drawn), for which the inhibition at 1 µM amounted to 1%.

`O=C1c2ccccc2C(=O)N1CCCn1c2ccccc2c2ccnc(CN[C@H]3CCCc4cccnc43)c21`: the inhibition at 1 µM came to 0%.

Regarding `O=C1CNCCN1CCCn1c2ccccc2c2ccnc(CN(CCCN3CCNCC3)[C@H]3CCCc4cccnc43)c21`, the IC50 is 44 nM.

With `NCCCCN(Cc1cc2c(cn1)[nH]c1ccccc12)C1CCCc2cccnc21` (stereo not drawn), the IC50 was 69 nM.

Source of the values: patent US9314468B2, “Chemokine receptor modulators” (Altiris Therapeutics, Inc., priority 2008, dated 2016).
